Laboratory results published in patent US6420428B1, “Treatment and prevention of hepatic disorders” (The Regents of the University of California, priority 1996, dated 2002).

What was measured:
[1] = after pentoxifylline; cited from earlier work
3T3 NIH fibroblasts = test: Fibroblast proliferation in culture; format: cell-based; conditions: for effect on fibroblast growth induced by cytokines PDGF, EGF and FGF: data not shown
Procedure: The biological activities of pentoxifylline and metabolite 5 were further studied by measuring their effects on the stimulation of fibroblast proliferation. For this study, 3T3 NIH fibroblasts were cultured in the presence or absence of pentoxifylline or metabolite 5.

[2] = test system: malondialdehyde-protein adducts; test: Hepatic lipid peroxidation (malondialdehyde-protein adducts, immunohistochemistry) in CCl4-treated rats; format: in vivo, Sprague-Dawley rats; conditions: 48 h
Procedure: (§1) Forty-eight hours after the CCl4 or mineral oil injection (and 4 hours after the [^3H]thymidine injection), the rats were sacrificed. Thereafter, liver tissues were promptly removed, and a piece was fixed in 10% formaldehyde and embedded in paraffin for immunohistochemical staining.
Liver tissue was immunostained with antisera, specific for malondialdehyde-lysine adducts, raised against malondialdehyde-lysine adducts as described by Houglum et al., J Clin Invest 96:2269-76 (1995). Briefly, guinea pig LDL was isolated and modified with MDA, and the homologous modified LDL was used to immunize guinea pigs.
A phase-contrast microscope was utilized for hematoxylin/eosin staining and immunohistochemistry with alkaline phosphatase secondary antibodies (Vector Laboratories). Cytochromes utilized were alkaline phosphatase with fast green as counterstain (Sigma Chemical Co.). Negative control samples were processed in parallel under the same conditions, but with omission of the primary antibody.
In order to ascertain whether or not the prevention of activation observed with pentoxifylline resulted from interfering with the hepatocellular injury induced by CCl4, the degree of hepatocellular injury and lipid peroxidation were determined in those animals. […] As set forth above, protein adducts with malondialdehyde were detected using specific antibodies against malondialdehyde-lysine epitopes.

[3] = test system: cAMP phosphodiesterase activity in hepatic stellate cells; test: CREB phosphorylation at Ser 133 in stellate cell nuclear extracts (Western blot) as measure of cAMP phosphodiesterase inhibition in vivo; design: species or system Sprague-Dawley rats; conditions: for expression of CREB-PSer133 in stellate cell nuclear extracts: CCl4-treated rats, Western blot
Procedure: Stellate cells were identified by their typical autofluorescence at 328 nm excitation wavelength, staining of lipid droplets by oil red, and immunohistochemistry with a monoclonal antibody against desmin. [Bedossa et al., Hepatology 19(5):1262-71 (1994)]. Detection of α-SMA, malondialdehyde-protein adducts, and CREB-PSer 133 in stellate cells extracts was performed by Western blot [Buck et al., EMBO J. 13:851-60 (1994)], and using antibodies directed against α-SMA (Vector Laboratories), malondialdehyde-lysine epitopes as described below [Trautwein et al., J. Clin. Invest. 93:2554-61 (1990)], or CREB-PSer 133 (Upstate Biotechnology).
Next, pentoxifylline and metabolite 5 were evaluated to determine whether they inhibit cAMP phosphodiesterase activity in hepatic stellate cells in vivo leading to an increase in protein kinase A-mediate phosphorylation. Because this signal transduction pathway triggers site-specific phosphorylation of the nuclear transcription factor CREB (cAMP responsive element binding protein) on Serine 133 [Yamamoto et al., Nature 334:494-98 (1988)], the induction of CREB phosphorylation at Ser 133 was analyzed in nuclear extracts from freshly isolated stellate cells using an antibody against the activated, phosphorylated form of CREB [Ginty et al., Science 260:238-42 (1993)].
FIG. 4B is a Western blot indicating the results of phosphorylation of CREB at Serine 133 in stellate cell nuclear extracts with control (lane 1), CCl4 (lane 2), CCl4/pentoxifylline (lane 3), and CCl4/metabolite 5 (lane 4) animals. […] Molecular markers (kilodaltons) are shown on the right margin of FIG. 4B. In addition to recognizing CREB, anti-CREB-PSer133 detected two other proteins. These are most likely members of the CREB-ATF family, ATF-1 and CREM, that have phosphoacceptor sequences similar to that of CREB-PSer133 [Ginty et al., Science 260:238-42 (1993)]. […] Neither CREB PSer133 nor phosphorylated members of the CREB-ATF family were detected in stellate cell nuclear extracts from CCl4-treated animals (lane 2).

α-SMA-E box = test: Mobility shift analysis of stellate cell nuclear extracts with α-SMA-E box oligonucleotide; format: in vivo, Sprague-Dawley rats; conditions: CCl4-treated rats, gel shift
Procedure: (§2) At least four Sprague-Dawley (Charles River Breeding Labs) male rats (50 to 60 g) were assigned to each of four testing groups (designated as “CCl4”, “pentoxifylline”, “metabolite 5”, and “control”). Each rat received a single intraperitoneal injection of CCl4 in mineral oil (1:3; v/v) at a dose of 2 mL/kg body weight (CCl4, pentoxifylline, and metabolite 5 groups), or mineral oil only (control group). In addition, animals received intraperitoneal injections (100 μL) of saline (control and CCl4 groups), 200 mg/kg pentoxifylline (pentoxifylline group), or 200 mg/kg of the ester prodrug of pentoxifylline metabolite 5 (metabolite 5 group) at the following times with respect to mineral oil or CCl4 administration: −4 h, +8 h, +20 h, +32 h, and +44 h.
Briefly, cells were homogenized in 1 mL of 5% citric acid, 0.5% NP-40, 10 mM sodium fluoride and 10 mM sodium pyrophosphate with a glass Dounce homogenizer with a loose fitting pestle. The homogenized cells were placed above a cushion consisting of 30% sucrose and 1% citric acid. The nuclei were precipitated by a 4,000 g centrifugation at 4° C. for 30 min. and frozen at −70° C.
Gel retardation analysis of protein-DNA complexes were performed with an oligonucleotide of the putative DNA binding site. […]

[4] = test system: α-smooth muscle actin (α-SMA) expression in hepatic stellate cells; test: Stellate cell activation: α-SMA expression by Western blot of freshly isolated stellate cells, CCl4-treated rats; format: in vivo, Sprague-Dawley rats; conditions: 200 mg/kg i.p., 48 h, metabolite 5 given as ester prodrug
Procedure: as §2
Hepatic stellate cells were prepared from rats by in situ perfusion of the liver and single-step density Nycodenz® gradient (Accurate Chemical & Scientific Corp.). […] The cells were mixed with 9.5 mL Hank's buffer containing 3 g/L BSA and 8 mL of 28.7% (w/v) Nycodenz® in sodium-free Hank's buffer. The gradient was generated by placing 6 mL of the Hank's/BSA solution on top of the liver cell mixture in a 50 mL centrifugation tube. […]

NFkB = test: Mobility shift analysis of stellate cell nuclear extracts with NFkB oligonucleotide; format: in vivo, Sprague-Dawley rats; conditions: CCl4-treated rats, gel shift
Procedure: Gel retardation analysis of protein-DNA complexes were performed with an oligonucleotide of the putative DNA binding site.
For these analyses, equal amounts of nuclear protein were incubated with 1 ng of ^32P-labeled-NFkB (FIG. 3A) or ^32P-labeled-α-SMA-E box (FIG. 3B) oligonucleotides. The DNA-protein complexes were resolved by electrophoresis on a 6% nondenaturing polyacrylamide gel, the position of the bound DNA being indicated by arrows in FIGS. 3A-B. As described further below, some samples were incubated with specific antibodies or unlabeled oligonucleotide.
More specifically, FIG. 3A depicts DNA-protein complexes resolved by gel electrophoresis for representative samples of control (lane 2), CCl4 (lane 3), CCl4/pentoxifylline (lane 4); CCl4/metabolite 5 (lane 5); and CCl4+NFkB oligonucleotide (lane 6). On lane 1, the ^32P-labeled-NFkB probe was processed without nuclear extracts. […] The complex of ^32P-labeled NFkB oligonucleotides and nuclear extracts from activated stellate cells was competed by a NFkB cognate oligonucleotide (lane 6).

[5] = rat, in vivo
Procedure: At least four Sprague-Dawley (Charles River Breeding Labs) male rats (50 to 60 g) were assigned to each of four testing groups (designated as “CCl4”, “pentoxifylline”, “metabolite 5”, and “control”). Each rat received a single intraperitoneal injection of CCl4 in mineral oil (1:3; v/v) at a dose of 2 mL/kg body weight (CCl4, pentoxifylline, and metabolite 5 groups), or mineral oil only (control group). In addition, animals received intraperitoneal injections (100 μL) of saline (control and CCl4 groups), 200 mg/kg pentoxifylline (pentoxifylline group), or 200 mg/kg of the ester prodrug of pentoxifylline metabolite 5 (metabolite 5 group) at the following times with respect to mineral oil or CCl4 administration: −4 h, +8 h, +20 h, +32 h, and +44 h. The last injection (at +44h) included 30 μCi of 6-[^3H]thymidine (DuPont).

[6] = test system: cyclic nucleotide phosphodiesterases; conditions: cited from earlier work
dermal fibroblasts = conditions: cited from earlier work
[7] = phosphorus-induced hepatocellular necrosis; cited from earlier work
hepatic stellate cells = test: Stellate cell proliferation ([3H]thymidine incorporation into stellate cell DNA) in CCl4-treated rats; format: in vivo, Sprague-Dawley rats; conditions: 200 mg/kg i.p. at -4, +8, +20, +32, +44 h, 48 h, metabolite 5 given as ester prodrug
Procedure: as §1
Hepatic stellate cells were prepared from rats by in situ perfusion of the liver and single-step density Nycodenz® gradient (Accurate Chemical & Scientific Corp.). [See Bedossa et al., Hepatology 19(5):1262-71 (1994); Brenner et al., Mol. Biol. Med. 7:105-15 (1990); Schäfer et al., Hepatology 7(4):680-87 (1987)]. The cells were mixed with 9.5 mL Hank's buffer containing 3 g/L BSA and 8 mL of 28.7% (w/v) Nycodenz® in sodium-free Hank's buffer. […]
Nuclei were prepared by a modification of the procedure described previously, e.g., by Buck et al., EMBO J. 13:851-60 (1994). […] DNA was isolated, extracted and counted for [^3H]thymidine incorporation.
Stellate cell proliferation was assessed by the incorporation of [^3H]thymidine. Stellate cell activation was evaluated by the expression of α-smooth muscle actin (α-SMA). […]
The specific activity of stellate cell DNA, an index of S-phase labeling, was determined from at least four rats in each experimental group after 4 hours of labeling with [^3H]thymidine at 1 PM. […]

Row | Compound | plasma concentration relative to pentoxifylline [1] | effect on fibroblast growth in logarithmic phase (3T3 NIH fibroblasts) | effect on fibroblast growth induced by cytokines PDGF, EGF and FGF (3T3 NIH fibroblasts) | hepatic lipid peroxidation (malondialdehyde-protein adducts) versus CCl4 alone [2] | expression of CREB-PSer133 in stellate cell nuclear extracts [3] | phosphodiesterase inhibitory activity ([3]; rat, in vivo) | effect on complex between α-SMA-E box and stellate cell nuclear extracts (α-SMA-E box) | effect on stellate cell activation (α-SMA expression, Western blot) [4] | effect on NFkB nuclear binding activity of stellate cells (NFkB) | toxicity of the dose to the animals [5] | phosphodiesterase inhibition [6] | collagen gene expression (dermal fibroblasts) | hepatic fibrosis [7] | effect on stellate cell proliferation (stellate cell DNA [3H]thymidine specific activity) (hepatic stellate cells)
1 | Cn1cnc2c1c(=O)n(CCCC(=O)O)c(=O)n2C [metabolite 5, 1-(3-carboxypropyl)-3,7-dimethylxanthine] | five times greater | block fibroblast growth in logarithmic phase | blocked fibroblast growth | did not affect | not detected | lacks phosphodiesterase inhibitory activity | prevented the formation of a complex | prevented the activation of stellate cells induced by CCl4 | prevented NFkB nuclear activity induced by CCl4 | – | – | – | – | –
2 | CC(=O)CCCCn1c(=O)c2c(ncn2C)n(C)c1=O [pentoxifylline, 1-(5-oxohexyl)-3,7-dimethylxanthine] | – | block fibroblast growth in logarithmic phase | blocked fibroblast growth | comparable | markedly increased | – | prevented the formation of a complex | prevented the activation of stellate cells induced by CCl4 | prevented NFkB nuclear activity induced by CCl4 | not toxic | non-specific inhibitor of cyclic nucleotide phosphodiesterases | inhibits collagen gene expression | prevented hepatic fibrosis | abolished the proliferation of stellate cells
